Assay [1] concerns the target T1, Olfr2 (Mus musculus, UniProt Q9QWU6).
T1 sequence (Q9QWU6 1-327): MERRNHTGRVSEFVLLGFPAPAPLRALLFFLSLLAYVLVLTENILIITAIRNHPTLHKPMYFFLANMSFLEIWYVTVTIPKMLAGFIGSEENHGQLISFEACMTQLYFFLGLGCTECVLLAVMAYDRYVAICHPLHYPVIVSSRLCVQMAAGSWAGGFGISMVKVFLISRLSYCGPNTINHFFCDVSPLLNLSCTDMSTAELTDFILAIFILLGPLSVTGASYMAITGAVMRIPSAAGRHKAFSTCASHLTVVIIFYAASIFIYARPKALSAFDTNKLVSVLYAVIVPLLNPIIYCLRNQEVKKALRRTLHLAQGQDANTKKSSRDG
The experiment in a line: Secreted cytokines in supernatants of stimulated aortas (cytokine bead array). The assay is classed as cell-based. Further details: Olfr2 expression was confirmed at the protein level on F4/80^+ vascular macrophages; from tissue; host or cells: explanted whole aortas, digested aortic cell suspensions (F4/80+ vascular macrophages) and blood monocytes of Apoe-/- C57BL/6J mice; living Apoe-/- mice for the in vivo study. To be noted: octanal 10 μM + LPS 500 ng/mL, 12 h, cytometric bead array. On the procedure: Apoe^−/− mice were fed WD for 2 weeks before sacrifice for aorta explant culture. Whole aortas were incubated in culture medium with DMSO (0.1% as a vehicle), octanal (Oct, 10 μM), LPS (500 ng/mL) alone or octanal and LPS combined (LPS+Oct) for 12 h at 37° C. and 5% CO2. Subsequently, aortas were collected and further processed as below discussed for RNA extraction, and flow cytometry analysis. Culture supernatants were collected, aliquoted, and frozen at −80° C. until further analysis.
Supernatants of stimulated cells and aortic tissue were analyzed by BD CBA Flex Sets (BD Biosciences) for mouse TNFα, CCL2, CCL4, IL-1β, or human TNF, IL6, and IL-1β according to the manufacturer's protocol. Samples were analyzed with LSR-II (BD Biosciences). Data was acquired with FACSDiva software (BD Biosciences) and analyzed with FCAP array software 3.0 (BD Biosciences).

For assay [2], the target named is T1, Olfr2. To be noted: Olfr2 binding of medium-chain aliphatic aldehydes; cited from earlier work.
For assay [3], the system named is OR6A2. Put plainly: OR6A2 expression in hMDMs (real time PCR, flow cytometry). To be noted: LPS + octanal. It is filed as cell-based, human. The procedure:
BMDMs and hMDMs were incubated in culture media for 12 h at 37° C. and 5% CO2 with Oct, (10 μM), LPS (500 ng/mL) alone or combined with Oct (LPS+Oct) and DMSO (0.1%) as a control and lysed with Qiazol (500 μL; Qiagen) Similarly, whole aortas incubated as previously described were transferred into Qiazol (500 μl; Qiagen) and digested with gentleMACS™ Dissociator (Miltenyi).
Total RNA was quantified using a nanodrop spectrophotometer (Peqlab) and 500 ng were reverse transcribed into cDNA using Omniscript reverse transcriptase (Qiagen). Real time PCR reactions were performed according to the RT^2 SYBR green gene expression assay protocol (Qiagen). RT2 SYBR Green qPCR master mix and premade RT^2 qPCR Primer Assays for mouse Olfr2, Rtp1, Rtp2, Ccl2, Ccl4, Tnf, Nos2 and Gapdh were used. Similarly, real time PCR analysis of hMDMs samples was performed following the RT^2 SYBR green gene expression assay protocol (Qiagen), applying RT^2 SYBR Green qPCR master mix and premade RT^2 qPCR Primer Assays for human OR6A2, TNF, IL-6, NOS2 and GAPDH. The results were calculated applying the 2^−ΔΔCT method^32 using Gapdh/GAPDH as housekeeping gene.
BMDMs, hMDMs, mouse blood leukocytes and whole mount aortas were incubated in culture medium with Oct, (10 μM), LPS, (500 ng/mL) alone or combined (LPS+Oct) for 12h at 37° C. and 5% CO2. […]
On the technique in general: Real-time PCR tracks product formation cycle by cycle.

Take `CCCCCCCC=O` [octanal]: the “secretion of TNF, CCL2 and CCL4 protein into supernatant of treated aortas” value is on record as “enhanced production” in assay [1] and “enhanced the secretion” in assay [1] (listed as Octanal). For the same compound, the 50% effective concentration (EC50) (usually the concentration needed to bring the measured effect to its halfway point) in assay [2] was about 10 µM. The “OR6A2 mRNA expression in hMDMs” value in assay [3] is recorded as “further augmented”.

Source of the values: patent US20210145768A1, “MODULATING IMMUNE RESPONSE VIA TARGETING OF OLFACTORY RECEPTOR ACTIVITY” (La Jolla Institute for Allergy and Immunology, priority 2018, published 2021).
